Where two headings read alike, the source gives them in different places.
Target: T1, RORγ (Homo sapiens, UniProt P51449)
T1 construct: Gal4 (galactose-responsive transcription factor); expressed in transfected cells; host or cells: HEK293
T1 sequence (P51449 269-508 limits assumed): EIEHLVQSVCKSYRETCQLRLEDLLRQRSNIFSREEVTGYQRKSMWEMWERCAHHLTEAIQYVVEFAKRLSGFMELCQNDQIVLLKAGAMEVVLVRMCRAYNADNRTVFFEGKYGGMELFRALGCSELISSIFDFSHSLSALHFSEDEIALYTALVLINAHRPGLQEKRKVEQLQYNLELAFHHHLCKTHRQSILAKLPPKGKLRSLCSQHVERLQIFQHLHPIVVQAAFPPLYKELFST
Experiment: RORγ Reporter Assay (Gal4)
Type: cell-based
Method: RORγ Reporter Assay (Gal4)
The HEK293 cell line is co-transfected transiently with two plasmids, one with the RORγ ligand-binding domain fused to galactose-responsive transcription factor (Gal4), and the other with the luciferase reporter gene and Gal binding sites (UAS). This construction allows to determine the RORγ activity in a cellular system through the measurement of luminescence.
A suspension of RORγ reporter cells was dispensed into plates and cultured 2 h at 37° C. and 5% CO2. Media formulation consisted in DMEM/F-12 medium (Gibco) supplemented with 10% heat inactivated FBS (Sigma-Aldrich), non-essential aminoacids (Sigma-Aldrich), 2 mM Glutamax (Gibco) and 100 U/mF penicillin (Sigma-Aldrich). Dose-response curves with compounds were prepared in 100% DMSO and further diluted […] in culture medium. Compound solutions were added to the plate containing cells (final DMSO concentration of 0.1%) and incubated for 24 h at 37° C. and 5% CO2. Luciferase detection reagent was added to each well, and relative light units […] were quantified from each assay well using a plate reading luminometer.
Values of average RFU±S.D. were computed for all treatment sets, followed by the calculations of percent-reduction of RORγ activity in response to respective test compound. The following formula was used: activity=100*[1−[x test compound/average vehicle]where the theoretical minimum reduction (0% reduction).

[1] = HEK293 co-transfected with RORγ LBD-Gal4 and luciferase reporter, 24 h incubation, absolute IC50, read-out: IC50
[2] = comparison compounds from WO2016020295, Tables 5 and 6, read-out: Gal4 assay IC50

SMILES	IC50 [1] [nM]	IC50 [2] [nM]
NC(=O)CN1CC[C@H](CNc2ncnc(N3CCOC[C@@H]3c3ccc(C(F)(F)F)cc3)c2F)[C@@H](O)C1 (single isomer, unassigned) [Example H6-7-1, 2-((3R*,4R*)-4-(((5-fluoro-6-((S)-3-(4-(trifluoromethyl)phenyl)morpholino)pyrimidin-4-yl)amino)methyl)-3-hydroxypiperidin-1-yl)acetamide]	20	–
NC(=O)Cc1ccc(CNc2ncnc(N3CCOC[C@@H]3c3ccc(OC(F)(F)F)cc3)c2F)cc1 [Example 230, reference compound]	–	< 100
NC(=O)CN1CCC(CNc2ncnc(N3C[C@H](F)C[C@@H]3c3ccc(C(F)(F)F)cc3)c2F)CC1 (racemic) [Example H6-27, rac-2-(4-(((5-fluoro-6-((2R,4R)-4-fluoro-2-(4-(trifluoromethyl)phenyl)pyrrolidin-1-yl)pyrimidin-4-yl)amino)methyl)piperidin-1-yl)acetamide]	210	–
NC(=O)CN1CC[C@H](CNc2ncnc(N3CC(F)(F)C[C@@H]3c3ccc(C(F)(F)F)cc3)c2F)[C@@H](F)C1 (single isomer, unassigned) [Example H6-16-1, 2-((3R*,4R*)-4-(((6-((R)-4,4-difluoro-2-(4-(trifluoromethyl)phenyl)pyrrolidin-1-yl)-5-fluoropyrimidin-4-yl)amino)methyl)-3-fluoropiperidin-1-yl)acetamide]	14	–
NC(=O)CN1CCC(CNc2ncnc(N3CCCC3c3ccc(C(F)(F)F)cc3)c2F)CC1 (stereo not shown) [Example H6-25, 2-(4-(((5-fluoro-6-(2-(4-(trifluoromethyl)phenyl)pyrrolidin-1-yl)pyrimidin-4-yl)amino)methyl)piperidin-1-yl)acetamide]	88	–
NC(=O)CN1CCC(CNc2ncnc(N3CCOC[C@@H]3c3ccc(OC(F)(F)F)cc3)c2F)CC1 [Example H6-23, (S)-2-(4-(((5-fluoro-6-(3-(4-(trifluoromethoxy)phenyl)morpholino)pyrimidin-4-yl)amino)methyl)piperidin-1-yl)acetamide]	190	–
NC(=O)CN1CC[C@H](CNc2ncnc(N3CC(F)(F)C[C@@H]3c3ccc(C(F)(F)F)cc3)c2F)[C@@H](O)C1 (mixture of isomers) [Example H6-17, 2-((3RS,4RS)-4-(((6-((R)-4,4-difluoro-2-(4-(trifluoromethyl)phenyl)pyrrolidin-1-yl)-5-fluoropyrimidin-4-yl)amino)methyl)-3-hydroxypiperidin-1-yl)acetamide]	10	–
NC(=O)CN1CCC(CNc2ncnc(N3CCOC[C@@H]3c3ccc(C(F)(F)F)cc3)c2F)C(F)(F)C1 (single isomer, unassigned) [Example H6-9-2, 2-((R*)-3,3-difluoro-4-(((5-fluoro-6-((S)-3-(4-(trifluoromethyl)phenyl)morpholino)pyrimidin-4-yl)amino)methyl)piperidin-1-yl)acetamide]	18	–
NC(=O)Cc1ccc(CNc2ncnc(N3CCOC[C@@H]3c3ccc(C(F)(F)F)cc3)c2F)cc1 [Example 204, reference compound]	–	< 500
NC(=O)CN1CC[C@H](CNc2ncnc(N3CC(F)(F)C[C@@H]3c3ccc(C(F)(F)F)cc3)c2F)[C@@H](O)C1 (single isomer, unassigned) [Example H6-17-2, 2-((3R*,4R*)-4-(((6-((R)-4,4-difluoro-2-(4-(trifluoromethyl)phenyl)pyrrolidin-1-yl)-5-fluoropyrimidin-4-yl)amino)methyl)-3-hydroxypiperidin-1-yl)acetamide]	31	–
NC(=O)CN1CC[C@H](CNc2ncnc(N3CC(F)(F)C[C@@H]3c3ccc(C(F)(F)F)cn3)c2F)[C@@H](O)C1 (mixture of isomers) [Example H6-20, 2-((3RS,4RS)-4-(((6-((R)-4,4-difluoro-2-(5-(trifluoromethyl)pyridin-2-yl)pyrrolidin-1-yl)-5-fluoropyrimidin-4-yl)amino)methyl)-3-hydroxypiperidin-1-yl)acetamide]	488	–
NC(=O)CN1CCC(F)(CNc2ncnc(N3CCOC[C@@H]3c3ccc(C(F)(F)F)cn3)c2F)CC1 [Example H6-8, (S)-2-(4-fluoro-4-(((5-fluoro-6-(3-(5-(trifluoromethyl)pyridin-2-yl)morpholino)pyrimidin-4-yl)amino)methyl)piperidin-1-yl)acetamide]	160	–
C[C@@H]1COC[C@H](c2ccc(C(F)(F)F)cc2)N1c1ncnc(NC[C@@H]2CCN(CC(N)=O)C[C@H]2O)c1F (single isomer, unassigned) [Example H6-22-2]	60	–
NC(=O)CN1CCC(CNc2ncnc(N3CCOC[C@@H]3c3ccc(C(F)(F)F)cc3)c2F)C(F)(F)C1 (single isomer, unassigned) [Example H6-9-1, 2-((R*)-3,3-difluoro-4-(((5-fluoro-6-((S)-3-(4-(trifluoromethyl)phenyl)morpholino)pyrimidin-4-yl)amino)methyl)piperidin-1-yl)acetamide]	100	–
NC(=O)CN1CC[C@H](CNc2ncnc(N3CCOC[C@@H]3c3ccc(C(F)(F)F)cn3)c2F)[C@H](F)C1 (single isomer, unassigned) [Example H6-12-2, 2-((3R*,4S*)-3-fluoro-4-(((5-fluoro-6-((S)-3-(5-(trifluoromethyl)pyridin-2-yl)morpholino)pyrimidin-4-yl)amino)methyl)piperidin-1-yl)acetamide]	910	–
NC(=O)CC1CCC(CNc2ncnc(N3CCOC[C@@H]3c3ccc(OC(F)(F)F)cc3)c2F)CC1 (stereo partly shown) [Example 245, reference compound]	–	< 500
NC(=O)CN1CCC(CNc2ncnc(N3CCC3c3ccc(C(F)(F)F)cc3)c2F)CC1 (stereo not shown) [Example H6-28, 2-(4-(((5-fluoro-6-(2-(4-(trifluoromethyl)phenyl)azetidin-1-yl)pyrimidin-4-yl)amino)methyl)piperidin-1-yl)acetamide]	300	–
NC(=O)CN1CCC(F)(CNc2ncnc(N3CCOC[C@@H]3c3ccc(OC(F)(F)F)cc3)c2F)CC1 [Example H6-6, (S)-2-(4-fluoro-4-(((5-fluoro-6-(3-(4-(trifluoromethoxy)phenyl)morpholino)pyrimidin-4-yl)amino)methyl)piperidin-1-yl)acetamide]	51	–
NC(=O)CN1CCC(CNc2ncnc(N3CC(F)(F)C[C@@H]3c3ccc(C(F)(F)F)cc3)c2F)C(F)(F)C1 (single isomer, unassigned) [Example H6-15-1, 2-((R*)-4-(((6-((R)-4,4-difluoro-2-(4-(trifluoromethyl)phenyl)pyrrolidin-1-yl)-5-fluoropyrimidin-4-yl)amino)methyl)-3,3-difluoropiperidin-1-yl)acetamide]	9	–
C[C@@H]1COC[C@H](c2ccc(C(F)(F)F)cc2)N1c1ncnc(NC[C@@H]2CCN(CC(N)=O)C[C@H]2O)c1F (single isomer, unassigned) [Example H6-22-1]	44	–
NC(=O)CN1CCC(CNc2ncnc(N3CC(F)(F)C[C@@H]3c3ccc(C(F)(F)F)cc3)c2F)C(F)(F)C1 (single isomer, unassigned) [Example H6-15-2, 2-((R*)-4-(((6-((R)-4,4-difluoro-2-(4-(trifluoromethyl)phenyl)pyrrolidin-1-yl)-5-fluoropyrimidin-4-yl)amino)methyl)-3,3-difluoropiperidin-1-yl)acetamide]	25	–
NC(=O)CN1CCC(CNc2ncnc(N3CCC[C@@H]3c3ccc(C(F)(F)F)cc3)c2F)CC1 [Example H6-25-1, (R)-2-(4-(((5-fluoro-6-(2-(4-(trifluoromethyl)phenyl)pyrrolidin-1-yl)pyrimidin-4-yl)amino)methyl)piperidin-1-yl)acetamide]	66	–
C[C@@H]1COC[C@H](c2cccc(C(F)(F)F)c2)N1c1ncnc(NC[C@@H]2CCN(CC(N)=O)C[C@H]2O)c1F (single isomer, unassigned) [Example H6-21-3]	86	–
NC(=O)CN1CC[C@H](CNc2ncnc(N3CCOC[C@@H]3c3ccc(C(F)(F)F)cn3)c2F)[C@H](F)C1 (single isomer, unassigned) [Example H6-12-1, 2-((3R*,4S*)-3-fluoro-4-(((5-fluoro-6-((S)-3-(5-(trifluoromethyl)pyridin-2-yl)morpholino)pyrimidin-4-yl)amino)methyl)piperidin-1-yl)acetamide]	550	–
NC(=O)CN1CCC(F)(CNc2ncnc(N3CCOC[C@@H]3c3ccc(C(F)(F)F)cc3)c2F)CC1 [Example H6-4, (S)-2-(4-fluoro-4-(((5-fluoro-6-(3-(4-(trifluoromethyl)phenyl)morpholino)pyrimidin-4-yl)amino)methyl)piperidin-1-yl)acetamide]	56	–
